Measurements published in patent publication US9096581B2, “Fluoroethyl thiamine or salts thereof and application thereof in preparation of anticoccidial drugs” (GUANGZHOU ORIGMOL FEED-ADDITIVE CO., LTD, priority 2012, dated 2015).
“Also recorded” adds a separate entry of the source. Where a name gives a salt, the structure may show the parent alone.

Legend:
Type in all cases: in vivo
Conditions in all cases: 125 ppm in feed; for average weight gain / number of oocysts in feces: 7th day after infecting; for survival rate: chickens; for relative decrement rate of oocysts: vs infected non-drug control; for relative weight gain rate: vs non-infected non-drug control
[1] = tested on: Eimeria acervulina HT; experiment: Anticoccidial effect on Eimeria acervulina in chickens (Embodiment 5)
Description: (§1) 1-day-old Lingnan yellow chickens, purchased from Poultry Research Unit, Bureau of Animal Husbandry, Guangdong Academy of Agricultural Sciences, bred under coccidium-free environment, and subjected to grouping and experiment after no coccidium oocyst is found in feces through microscopic examination when the chickens are 14 days old.
Eimeria acervulina HT, having no resistance to various anticoccidial drugs. Breeding and amplifying in chickens before the experiment, collecting fresh eggs, sporulating, and preserving at 4° C. for later use.
(§2) Weighing the 14-day-old experiment chickens one by one, rejecting emaciated chickens or overweighted chicks, selecting healthy chickens of which the individual body weight difference is within 20 g, and dividing to 4 groups with 30 chickens in each group. Groups 1 and 2 are respectively a non-drug-applied and non-coccidium-killed control group and a coccidium-infected and non-drug-applied control group, and Groups 3 and 4 are added with fluoroethyl thiamine hydrochloride or amprolium according to Table 8. Feeding with feed containing different drugs on the day of experiment grouping, enabling the chickens to freely take in the feed, and feeding the chickens until the experiment ends.
(§3) Except the non-coccidium-infected and non-drug-applied control group, giving each experiment chicken in each experiment group with 5×10^5 eimeria acervulina sporulated oocysts via the crop on the next day of the grouping day. During experiment, observing and recording the spirit, appetite, bloody feces situation, death count and the like of the chickens every day. On the 7th day after infecting, respectively weighing each group, calculating the relative weight gain rate, simultaneously collecting feces samples, and counting the number of oocysts per gram of feces.
2.3.1 Weight gain: respectively weighing each chicken when the experiment starts and ends, and calculating the average weight gain and relative weight gain rate. The relative weight gain rate=(the average weight gain in the experiment groups/the average weight gain in the non-infected and non-drug-applied control group)×100%.
2.3.2 Survival rate: recording the number of dead chickens of each group, autopsying to determine the death cause, and calculating the survival rate. The survival rate=(the total number of the chickens in the experiment groups−the number of the chickens dying of coccidium infection during the experiment)/the total number of the chickens in the experiment groups×100%.
2.3.3 oocyst counting and relative decrement rate of oocysts: on the 7th day after coccidium infection, digesting the collected fresh feces with 10% sodium hypochlorite for 15 min, counting the number of the coccidium oocysts per gram of feces through a blood counting chamber, and calculating the relative decrement rate of the oocysts in the feces of each experiment group. The relative decrement rate of oocysts=(the number of the oocysts per gram of feces in the coccidium-killed and non-drug-applied control group−the number of the oocysts per gram of feces in the experiment groups)/the number of the oocysts per gram of feces in the coccidium-killed and non-drug-applied control group×100%.

[2] = tested on: Eimeria maxima PY strains; experiment: Anticoccidial effect on Eimeria maxima in chickens (Embodiment 6)
Description: as §1
Eimeria maxima PY strains, having no resistance to various anticoccidial drugs. Breeding and amplifying in chickens before the experiment, collecting fresh oocysts, sporulating, and preserving at 4° C. for later use.
as §2, with “chickens,” for “chicks,”, “10.” for “8.”, “in” for “in the”
as §3, with “3×10^5” for “5×10^5”, “maxima” for “acervulina”
(§4) The anticoccidial effect evaluation is the same with Embodiment 5.

[3] = tested on: Eimeria necatrix GD strains; experiment: Anticoccidial effect on Eimeria necatrix in chickens (Embodiment 7)
Description: as §1
Eimeria necatrix GD strains, having no resistance to various anticoccidial drugs. Breeding and amplifying in chickens before the experiment, collecting fresh oocysts, sporulating, and preserving at 4° C. for later use.
as §2, with “chickens,” for “chicks,”, “12.” for “8.”
as §3, with “1×10^5” for “5×10^5”, “necatrix” for “acervulina”
as §4

Structure (SMILES)	average weight gain [1]	number of oocysts in feces [1]	survival rate [1]	relative decrement rate of oocysts [1]	relative weight gain rate [1]	average weight gain [2]	number of oocysts in feces [2]	survival rate [2]	relative decrement rate of oocysts [2]	relative weight gain rate [2]	average weight gain [3]	number of oocysts in feces [3]	survival rate [3]	relative decrement rate of oocysts [3]	relative weight gain rate [3]	inhibition of eimeria acervulina, in words ([1]; hydrochloride)	inhibition of eimeria maxima, in words ([2]; hydrochloride)	inhibition of eimeria necatrix, in words ([3]; hydrochloride)
CCCc1ncc(C[n+]2ccccc2C)c(N)n1 [amprolium, Amprolium, reference compound]	166.6 g	29800 g⁻¹	100%	88.8%	86.4%	167.4 g	8600 g⁻¹	100%	79.5%	93.1%	159.9 g	3600 g⁻¹	100%	73.3%	86.2%			
CCc1ncc(C[n+]2csc(CCF)c2C)c(N)n1 [fluoroethyl thiamine hydrochloride, 3-[(4-amino-2-ethyl-5-pyrimidyl)-methylene]-5-(2-fluoroethyl)-4-methyl thiazole chloride hydrochloride]	186.5 g	6500 g⁻¹	100%	97.6%	96.7%	176.3 g	3700 g⁻¹	100%	91.2%	98.0%	172.5 g	1900 g⁻¹	100%	85.9%	92.9%	significant inhibition effect on the eimeria acervulina; also recorded: superior to amprolium in eimeria acervulina inhibition	significant inhibition effect on eimeria maxima; also recorded: superior to amprolium in eimeria maxima inhibition	can effectively control infection of the eimeria necatrix; also recorded: superior to amprolium in eimeria necatrix inhibition
